Laboratory results reported in ChEMBL document CHEMBL1201861, “Genomics of Drug Sensitity in Cancer screening data, Wellcome Trust Sanger Institute”.

Tests used:
Assay in all cases: cells
GI-ME-N = assay type: functional, cell-based, Homo sapiens; details: Homo sapiens, GI-ME-N
Description: SANGER: Inhibition of human GI-ME-N cell growth in a cell viability assay.

no-11 = assay type: functional, cell-based, Homo sapiens; details: Homo sapiens
Description: SANGER: Inhibition of human no-11 cell growth in a cell viability assay.

NCI-H69 = assay type: functional, cell-based, Homo sapiens; details: Homo sapiens, NCI-H69
Description: SANGER: Inhibition of human NCI-H69 cell growth in a cell viability assay.

SBC-1 = assay type: functional, cell-based, Homo sapiens; details: Homo sapiens, SBC-1
Description: SANGER: Inhibition of human SBC-1 cell growth in a cell viability assay.

HAL-01 = assay type: functional, cell-based, Homo sapiens; details: Homo sapiens, HAL-01
Description: SANGER: Inhibition of human HAL-01 cell growth in a cell viability assay.

KS-1 = assay type: functional, cell-based; details: Homo sapiens
Description: SANGER: Inhibition of human KS-1 cell growth in a cell viability assay.

KM-H2 = assay type: functional, cell-based, Homo sapiens; details: Homo sapiens, KM-H2
Description: SANGER: Inhibition of human KM-H2 cell growth in a cell viability assay.

EW-16 = assay type: functional, cell-based, Homo sapiens; details: Homo sapiens, EW-16
Description: SANGER: Inhibition of human EW-16 cell growth in a cell viability assay.

CTB-1 = assay type: functional, cell-based, Homo sapiens; details: Homo sapiens, CTB-1
Description: SANGER: Inhibition of human CTB-1 cell growth in a cell viability assay.

HEL = assay type: functional, cell-based, Homo sapiens; details: Homo sapiens, HEL
Description: SANGER: Inhibition of human HEL cell growth in a cell viability assay.

ALL-PO = assay type: functional, cell-based, Homo sapiens; details: Homo sapiens, ALL-PO
Description: SANGER: Inhibition of human ALL-PO cell growth in a cell viability assay.

NB5 = assay type: functional, cell-based, Homo sapiens; details: Homo sapiens, NB5
Description: SANGER: Inhibition of human NB5 cell growth in a cell viability assay.

GT3TKB = assay type: functional, cell-based, Homo sapiens; details: Homo sapiens, GT3TKB
Description: SANGER: Inhibition of human GT3TKB cell growth in a cell viability assay.

NCI-H1648 = assay type: functional, cell-based, Homo sapiens; details: Homo sapiens, NCI-H1648
Description: SANGER: Inhibition of human NCI-H1648 cell growth in a cell viability assay.

KURAMOCHI = assay type: functional, cell-based, Homo sapiens; details: Homo sapiens, KURAMOCHI
Description: SANGER: Inhibition of human KURAMOCHI cell growth in a cell viability assay.

RCC10RGB = assay type: functional, cell-based, Homo sapiens; details: Homo sapiens, RCC10RGB
Description: SANGER: Inhibition of human RCC10RGB cell growth in a cell viability assay.

NCI-H1838 = assay type: functional, cell-based, Homo sapiens; details: Homo sapiens, NCI-H1838
Description: SANGER: Inhibition of human NCI-H1838 cell growth in a cell viability assay.

IST-SL1 = assay type: functional, cell-based, Homo sapiens; details: Homo sapiens, IST-SL1
Description: SANGER: Inhibition of human IST-SL1 cell growth in a cell viability assay.

SK-UT-1 = assay type: functional, cell-based, Homo sapiens; details: Homo sapiens, SK-UT-1
Description: SANGER: Inhibition of human SK-UT-1 cell growth in a cell viability assay.

Lu-65 = assay type: functional, cell-based, Homo sapiens; details: Homo sapiens, Lu-65
Description: SANGER: Inhibition of human LU-65 cell growth in a cell viability assay.

HD-MY-Z = assay type: functional, cell-based, Homo sapiens; details: Homo sapiens, HD-MY-Z
Description: SANGER: Inhibition of human HD-MY-Z cell growth in a cell viability assay.

NB10 = assay type: functional, cell-based, Homo sapiens; details: Homo sapiens, NB10
Description: SANGER: Inhibition of human NB10 cell growth in a cell viability assay.

LC-2-ad = assay type: functional, cell-based, Homo sapiens; details: Homo sapiens, LC-2-ad
Description: SANGER: Inhibition of human LC-2-ad cell growth in a cell viability assay.

LNCaP-Clone-FGC = assay type: functional, cell-based, Homo sapiens; details: Homo sapiens, LNCaP-Clone-FGC
Description: SANGER: Inhibition of human LNCaP-Clone-FGC cell growth in a cell viability assay.

RS4-11 = assay type: functional, cell-based, Homo sapiens; details: Homo sapiens, RS4-11
Description: SANGER: Inhibition of human RS4-11 cell growth in a cell viability assay.

MOLT-16 = assay type: functional, cell-based, Homo sapiens; details: Homo sapiens, MOLT-16
Description: SANGER: Inhibition of human MOLT-16 cell growth in a cell viability assay.

DB = assay type: functional, cell-based, Homo sapiens; details: Homo sapiens, DB
Description: SANGER: Inhibition of human DB cell growth in a cell viability assay.

ATN-1 = assay type: functional, cell-based, Homo sapiens; details: Homo sapiens, ATN-1
Description: SANGER: Inhibition of human ATN-1 cell growth in a cell viability assay.

SCH = assay type: functional, cell-based, Homo sapiens; details: Homo sapiens, SCH
Description: SANGER: Inhibition of human SCH cell growth in a cell viability assay.

TE-8 = assay type: functional, cell-based, Homo sapiens; details: Homo sapiens, TE-8
Description: SANGER: Inhibition of human TE-8 cell growth in a cell viability assay.

COLO-800 = assay type: functional, cell-based, Homo sapiens; details: Homo sapiens, COLO-800
Description: SANGER: Inhibition of human COLO-800 cell growth in a cell viability assay.

NCI-H1395 = assay type: functional, cell-based, Homo sapiens; details: Homo sapiens, NCI-H1395
Description: SANGER: Inhibition of human NCI-H1395 cell growth in a cell viability assay.

COLO-829 = assay type: functional, cell-based, Homo sapiens; details: Homo sapiens, COLO-829
Description: SANGER: Inhibition of human COLO-829 cell growth in a cell viability assay.

NCI-H1092 = assay type: functional, cell-based, Homo sapiens; details: Homo sapiens, NCI-H1092
Description: SANGER: Inhibition of human NCI-H1092 cell growth in a cell viability assay.

NCI-H1581 = assay type: functional, cell-based, Homo sapiens; details: Homo sapiens, NCI-H1581
Description: SANGER: Inhibition of human NCI-H1581 cell growth in a cell viability assay.

GOTO = assay type: functional, cell-based, Homo sapiens; details: Homo sapiens, GOTO
Description: SANGER: Inhibition of human GOTO cell growth in a cell viability assay.

RPMI-8226 = assay type: functional, cell-based, Homo sapiens; details: Homo sapiens, RPMI-8226
Description: SANGER: Inhibition of human RPMI-8226 cell growth in a cell viability assay.

SK-MEL-1 = assay type: functional, cell-based, Homo sapiens; details: Homo sapiens, SK-MEL-1
Description: SANGER: Inhibition of human SK-MEL-1 cell growth in a cell viability assay.

NMC-G1 = assay type: functional, cell-based, Homo sapiens; details: Homo sapiens, NMC-G1
Description: SANGER: Inhibition of human NMC-G1 cell growth in a cell viability assay.

C8166 = assay type: functional, cell-based, Homo sapiens; details: Homo sapiens, C8166
Description: SANGER: Inhibition of human C8166 cell growth in a cell viability assay.

LAN-6 = assay type: functional, cell-based, Homo sapiens; details: Homo sapiens, LAN-6
Description: SANGER: Inhibition of human LAN-6 cell growth in a cell viability assay.

MN-60 = assay type: functional, cell-based, Homo sapiens; details: Homo sapiens, MN-60
Description: SANGER: Inhibition of human MN-60 cell growth in a cell viability assay.

ONS-76 = assay type: functional, cell-based, Homo sapiens; details: Homo sapiens, ONS-76
Description: SANGER: Inhibition of human ONS-76 cell growth in a cell viability assay.

NKM-1 = assay type: functional, cell-based, Homo sapiens; details: Homo sapiens, NKM-1
Description: SANGER: Inhibition of human NKM-1 cell growth in a cell viability assay.

NCI-H23 = assay type: functional, cell-based, Homo sapiens; details: Homo sapiens, NCI-H23
Description: SANGER: Inhibition of human NCI-H23 cell growth in a cell viability assay.

OVCAR-4 = assay type: functional, cell-based, Homo sapiens; details: Homo sapiens, OVCAR-4
Description: SANGER: Inhibition of human OVCAR-4 cell growth in a cell viability assay.

LXF-289 cell line = assay type: functional, cell-based; details: Homo sapiens
Description: SANGER: Inhibition of human LXF-289 cell growth in a cell viability assay.

KALS-1 = assay type: functional, cell-based, Homo sapiens; details: Homo sapiens, KALS-1; read-out: IC50
Description: SANGER: Inhibition of human KALS-1 cell growth in a cell viability assay.

TGW = assay type: functional, cell-based, Homo sapiens; details: Homo sapiens, TGW
Description: SANGER: Inhibition of human TGW cell growth in a cell viability assay.

## Cc1ccc(C(=O)Nc2ccc(CN3CCN(C)CC3)c(C(F)(F)F)c2)cc1C#Cc1cnc2cccnn12 [PONATINIB]
GI-ME-N
  IC50: > 512 nM
no-11
  IC50: > 512 nM
NCI-H69
  IC50: > 512 nM
SBC-1
  IC50: > 512 nM
HAL-01
  IC50: > 0.512 µM
KS-1
  IC50: > 512 nM
KM-H2
  IC50: > 512 nM
EW-16
  IC50: > 0.512 µM
CTB-1
  IC50: 173 nM
HEL
  IC50: > 512 nM
ALL-PO
  IC50: 124 nM
NB5
  IC50: > 512 nM
GT3TKB
  IC50: > 512 nM
NCI-H1648
  IC50: > 512 nM
KURAMOCHI
  IC50: 284 nM
RCC10RGB
  IC50: > 512 nM
NCI-H1838
  IC50: > 512 nM
IST-SL1
  IC50: > 512 nM
SK-UT-1
  IC50: > 512 nM
Lu-65
  IC50: > 512 nM
HD-MY-Z
  IC50: > 512 nM
NB10
  IC50: > 512 nM
LC-2-ad
  IC50: 243 nM
LNCaP-Clone-FGC
  IC50: > 512 nM
RS4-11
  IC50: > 512 nM
MOLT-16
  IC50: > 512 nM
DB
  IC50: > 0.512 µM
ATN-1
  IC50: > 512 nM
SCH
  IC50: > 512 nM
TE-8
  IC50: > 512 nM
COLO-800
  IC50: > 512 nM
NCI-H1395
  IC50: > 512 nM
COLO-829
  IC50: > 512 nM
NCI-H1092
  IC50: > 512 nM
NCI-H1581
  IC50: > 512 nM
GOTO
  IC50: > 0.512 µM
RPMI-8226
  IC50: > 512 nM
SK-MEL-1
  IC50: > 512 nM
NMC-G1
  IC50: > 512 nM
C8166
  IC50: > 512 nM
LAN-6
  IC50: > 512 nM
MN-60
  IC50: > 512 nM
ONS-76
  IC50: > 0.512 µM
NKM-1
  IC50: 6.55 nM
NCI-H23
  IC50: > 512 nM
OVCAR-4
  IC50: 416 nM
LXF-289 cell line
  IC50: > 0.512 µM
KALS-1
  IC50: > 512 nM
TGW
  IC50: > 512 nM

## OC[C@H](Cc1ccccc1)Nc1nc(Oc2ccc3c(c2)CCC3)nc2c1ncn2Cc1ccc(-c2ccccc2)cc1
GI-ME-N
  IC50: > 10200 nM
no-11
  IC50: > 10200 nM
NCI-H69
  IC50: > 10200 nM
SBC-1
  IC50: > 10200 nM
HAL-01
  IC50: 9.16 µM
KS-1
  IC50: > 10200 nM
KM-H2
  IC50: > 10200 nM
EW-16
  IC50: 8.29 µM
CTB-1
  IC50: > 10200 nM
HEL
  IC50: 3280 nM
ALL-PO
  IC50: > 10200 nM
NB5
  IC50: > 10200 nM
GT3TKB
  IC50: > 10200 nM
NCI-H1648
  IC50: > 10200 nM
KURAMOCHI
  IC50: 3820 nM
RCC10RGB
  IC50: > 10200 nM
NCI-H1838
  IC50: > 10200 nM
IST-SL1
  IC50: > 10200 nM
SK-UT-1
  IC50: > 10200 nM
Lu-65
  IC50: > 10200 nM
HD-MY-Z
  IC50: > 10200 nM
NB10
  IC50: > 10200 nM
LC-2-ad
  IC50: 8530 nM
LNCaP-Clone-FGC
  IC50: > 10200 nM
RS4-11
  IC50: > 10200 nM
MOLT-16
  IC50: > 10200 nM
DB
  IC50: 6.68 µM
ATN-1
  IC50: > 10200 nM
SCH
  IC50: > 10200 nM
TE-8
  IC50: 3170 nM
COLO-800
  IC50: > 10200 nM
NCI-H1395
  IC50: > 10200 nM
COLO-829
  IC50: > 10200 nM
NCI-H1092
  IC50: > 10200 nM
NCI-H1581
  IC50: > 10200 nM
GOTO
  IC50: 5.86 µM
RPMI-8226
  IC50: > 10200 nM
SK-MEL-1
  IC50: > 10200 nM
NMC-G1
  IC50: > 10200 nM
C8166
  IC50: > 10200 nM
LAN-6
  IC50: > 10200 nM
MN-60
  IC50: > 10200 nM
ONS-76
  IC50: 8.58 µM
NKM-1
  IC50: > 10200 nM
NCI-H23
  IC50: > 10200 nM
OVCAR-4
  IC50: 8190 nM
LXF-289 cell line
  IC50: 7.61 µM
KALS-1
  IC50: > 10200 nM
TGW
  IC50: > 10200 nM

## NC(=O)c1cccc(-c2cc(Nc3ccc(OC(F)(F)F)cc3)ncn2)c1
GI-ME-N
  IC50: > 1280 nM
no-11
  IC50: > 1280 nM
NCI-H69
  IC50: > 1280 nM
SBC-1
  IC50: 1000 nM
HAL-01
  IC50: > 1.28 µM
KS-1
  IC50: > 1280 nM
KM-H2
  IC50: > 1280 nM
EW-16
  IC50: > 1.28 µM
CTB-1
  IC50: > 1280 nM
HEL
  IC50: > 1280 nM
ALL-PO
  IC50: > 1280 nM
NB5
  IC50: > 1280 nM
GT3TKB
  IC50: > 1280 nM
NCI-H1648
  IC50: > 1280 nM
KURAMOCHI
  IC50: > 1280 nM
RCC10RGB
  IC50: > 1280 nM
NCI-H1838
  IC50: > 1280 nM
IST-SL1
  IC50: > 1280 nM
SK-UT-1
  IC50: > 1280 nM
Lu-65
  IC50: > 1280 nM
HD-MY-Z
  IC50: > 1280 nM
NB10
  IC50: > 1280 nM
LC-2-ad
  IC50: > 1280 nM
LNCaP-Clone-FGC
  IC50: > 1280 nM
RS4-11
  IC50: > 1280 nM
MOLT-16
  IC50: > 1280 nM
DB
  IC50: > 1.28 µM
ATN-1
  IC50: > 1280 nM
SCH
  IC50: > 1280 nM
TE-8
  IC50: > 1280 nM
COLO-800
  IC50: > 1280 nM
NCI-H1395
  IC50: > 1280 nM
COLO-829
  IC50: > 1280 nM
NCI-H1092
  IC50: > 1280 nM
NCI-H1581
  IC50: > 1280 nM
GOTO
  IC50: > 1.28 µM
RPMI-8226
  IC50: > 1280 nM
SK-MEL-1
  IC50: > 1280 nM
NMC-G1
  IC50: > 1280 nM
C8166
  IC50: > 1280 nM
LAN-6
  IC50: > 1280 nM
MN-60
  IC50: > 1280 nM
ONS-76
  IC50: > 1.28 µM
NKM-1
  IC50: > 1280 nM
NCI-H23
  IC50: > 1280 nM
OVCAR-4
  IC50: > 1280 nM
LXF-289 cell line
  IC50: > 1.28 µM
KALS-1
  IC50: > 1280 nM
TGW
  IC50: > 1280 nM
